From patent US8703770B2, “Pyridazine carboxamide orexin receptor antagonists” (Merck Sharp & Dohme Corp., priority 2008, dated 2014)

Molecular target: OX2R (Homo sapiens (Human), UniProt O43614)
Assay: radioligand binding assay, membranes from CHO cells expressing OX2 receptor
Conditions: CHO cell membranes

OX2R, sequence (O43614 whole entry): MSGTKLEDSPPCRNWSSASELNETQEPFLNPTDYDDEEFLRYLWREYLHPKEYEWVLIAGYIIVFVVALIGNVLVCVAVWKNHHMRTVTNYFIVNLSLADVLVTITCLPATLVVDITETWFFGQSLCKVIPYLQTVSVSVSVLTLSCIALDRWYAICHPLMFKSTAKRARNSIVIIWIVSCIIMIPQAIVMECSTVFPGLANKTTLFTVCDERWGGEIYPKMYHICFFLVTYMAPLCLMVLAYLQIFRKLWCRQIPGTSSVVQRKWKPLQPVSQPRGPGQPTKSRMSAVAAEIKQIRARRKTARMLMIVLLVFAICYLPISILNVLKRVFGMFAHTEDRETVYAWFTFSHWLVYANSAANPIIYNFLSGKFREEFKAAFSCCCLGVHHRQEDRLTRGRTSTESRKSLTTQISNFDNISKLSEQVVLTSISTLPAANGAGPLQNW

| Ki | SMILES |
| --- | --- |
| 3.3 nM | COc1ccc(CNC(=O)c2cc(-c3cc(C)cc(C)c3)nnc2-c2cnn(C)c2)cc1OC [Compound 1-5, N-(3,4-dimethoxybenzyl)-6-(3,5-dimethylphenyl)-3-(1-methyl-1H-pyrazol-4-yl)pyridazine-4-carboxamide] |
| 0.96 nM | COc1ccc(CNC(=O)c2cc(-c3cc(C)cc(Cl)c3)nnc2N2CCOCC2)cc1OC [Compound 2-2, 6-(3-chloro-5-methylphenyl)-N-(3,4-dimethoxybenzyl)-3-morpholin-4-ylpyridazine-4-carboxamide] |
